Reference: patent US5384309A, “Cyclized peptides and their use as platelet aggregation inhibitors” (Genentech, Inc., priority 1989, dated 1995)
Like-named read-outs stand apart in the source and are kept apart here. Positions of bridges follow the written chain, without caps; N, C: chain ends. Non-standard residues stand in square brackets, D forms with d. Residues, ends and D or L forms follow the SMILES beside them. No end group written: not given here.

Assays:
[1] = target: human platelet rich plasma (PRP) platelets (Homo sapiens, UniProt P05106+P08514); assay: platelet aggregation inhibition in human platelet rich plasma (ADP induced); type: cell-based; conditions: ADP 8 uM
Protocol: (§1) In addition to the GP llbllla ELISA assay, platelet aggregation assays may be performed in human platelet rich plasma (PRP). Fifty milliliters of whole human blood (9 parts) is drawn on 3.6% sodium citrate (1 part) from a donor who has not taken aspirin or related medications for at least two weeks. The blood is centrifuged at 160 ×g for 10 min at 220° C. and then allowed to stand for 5 min after which the PRP is decanted. Platelet poor plasma (PPP) is isolated from the remaining blood after centrifugation at 2000×g for 25 min. The platelet count of the PRP was diluted to ca. 300000 per microliter with PPP.
A 225 uL aliquot of PRP plus 25 uL of either a dilution of the test sample or a control (PBS) is incubated for 5 min in a Chrono-log Whole Blood Aggregometer at 25° C. An aggregatng agent (collagen, 1 ug/ml; U46619, 100 ng/ml; or ADP, 8 uM) is added and the platelet aggregation recorded.
as §1, with “Fifty” for “In addition to the GP llbllla ELISA assay, platelet aggregation assays may be performed in human platelet rich plasma (PRP). Fifty”, “160×g” for “160 ×g”, “22°” for “220°”
A 225 uL aliquot of PRP plus 25 uL of either a dilution of the test sample or a control (PBS) is incubated for 5 min in a Chrono-log Whole Blood Aggregometer at 25° C. Adenosine diphosphate (ADP, 8 uM) is added and the platelet aggregation recorded.

[2] = target: T1, purified human platelet GP llbllla receptor (Homo sapiens, UniProt P05106+P08514); assay: biochemical; type: binding; conditions: for IC50: ELISA, fibrinogen-coated plates, solubilized GP llbllla, read-out: IC50, inhibition of fibrinogen binding to the GP llbllla platelet receptor
T1 construct: Platelet GP llbllla was prepared by the method of Fitzgerald, et al; from tissue; host or cells: human platelets
Protocol: In-vitro biological activity of the compounds of Formula I was monitored using a modified fibrinogen--GP llbllla ELISA based on the method of Nachman and Leung (J. Clin. Invest. (1982) 69, 263-269) which measures the inhibition of fibrinogen binding to purified human platelet GP llbllla receptor. Human fibrinogen was prepared by the method of Lipinska, et al. (J. Lab. Grin. Med. (1974) 84, 509-516). Platelet GP llbllla was prepared by the method of Fitzgerald, et al. (Anal. Blochem. (1985) 151,169-177.
Microtiter plates are coated with fibrinogen (10 ug/ml) and then blocked with TACTS buffer containing 0.5% bovine serum albumin (BSA). (TACTS buffer contains 20 mM Tris. HCl, pH 7.5, 0.02% sodium azide, 2 mM calcium chloride, 0.05% Tween 20, 150 mM sodium chloride.) The plate is washed with phosphate buffered saline (PBS) containing 0.01% Tween 20 and the sample to be determined added, followed by addition of solubilized GP llbllla receptor (40 ug/ml) in TACTS, 0.5% BSA. After incubation, the plate is washed and 1 ug/ml of murine anti-platelet monoclonal antibody AP3 (P. J. Newman et al. Blood (1985) 65, 227-232) is added. After another wash a goat anti-mouse IgG conjugated to horseradish peroxidase is added. A final wash is performed and developing reagent buffer (10 mg o-phenylenediamine dihydrochloride, 0.0212% hydrogen peroxide, 0.22 mM citrate, 50 mM phosphate, pH 5.0) is added and then incubated until color develops. The reaction is stopped with 1N sulfuric acid and the absorbance at 492 nm is recorded.
Microtiter plates are coated with fibrinogen (10 ug/ml) and then blocked with TACTS buffer containing 0.5% BSA. (TACTS buffer contains 20mM Tris. HCl, pH 7.5, 0.02% sodium azide, 2 mM calcium chloride, 0.05% Tween 20, 150 mM sodium chloride.) The plate is washed with phosphate buffered saline containing 0.01% Tween 20 and a dilution of the sample to be determined added, followed by addition of solubilized llbllla receptor (40 ug/ml) in TACTS, 0.5% BSA. After incubation, the plate is washed and murine monoclonal anti-platelet antibody AP3 (1 ug/ml) added. After another wash goat and anti-mouse IgG conjugated to horseradish peroxidase is added. A final wash is performed and developing reagent buffer (10 mg o-phenylenediamine dihydrochloride, 0.0212% hydrogen peroxide, 0.22 mM citrate, 50 mM phosphate, pH 5.0) is added and then incubated until color developed. The reaction is stopped with 1N sulfuric acid and the absorbance at 492 nm is recorded.

[3] = GP IIbIIIa receptor assay for inhibition of fibrinogen binding, smaller ratio = more active

T1 sequence (P08514 32-887 limits assumed): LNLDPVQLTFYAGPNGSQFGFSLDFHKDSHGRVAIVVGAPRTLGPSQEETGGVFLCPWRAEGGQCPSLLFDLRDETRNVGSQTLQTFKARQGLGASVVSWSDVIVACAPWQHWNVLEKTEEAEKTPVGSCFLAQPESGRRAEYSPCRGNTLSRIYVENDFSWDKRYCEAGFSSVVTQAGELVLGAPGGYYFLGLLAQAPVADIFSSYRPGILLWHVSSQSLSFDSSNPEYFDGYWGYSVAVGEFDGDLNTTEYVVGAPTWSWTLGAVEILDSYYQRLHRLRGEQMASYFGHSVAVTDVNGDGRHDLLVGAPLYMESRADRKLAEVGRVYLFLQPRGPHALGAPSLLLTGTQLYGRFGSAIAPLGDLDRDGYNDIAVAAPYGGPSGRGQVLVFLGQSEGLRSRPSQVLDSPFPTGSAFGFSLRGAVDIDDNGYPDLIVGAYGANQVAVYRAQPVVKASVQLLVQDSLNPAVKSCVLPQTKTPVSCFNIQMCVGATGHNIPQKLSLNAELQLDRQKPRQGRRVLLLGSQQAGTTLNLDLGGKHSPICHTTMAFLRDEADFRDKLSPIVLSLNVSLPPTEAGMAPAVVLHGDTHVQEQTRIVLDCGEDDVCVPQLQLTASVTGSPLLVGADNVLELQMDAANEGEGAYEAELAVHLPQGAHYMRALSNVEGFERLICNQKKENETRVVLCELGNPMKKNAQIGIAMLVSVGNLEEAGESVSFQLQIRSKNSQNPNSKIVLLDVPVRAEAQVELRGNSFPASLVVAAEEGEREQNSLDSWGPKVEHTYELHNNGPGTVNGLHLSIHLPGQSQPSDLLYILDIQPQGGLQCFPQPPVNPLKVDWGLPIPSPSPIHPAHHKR
T1 sequence (P08514 891-1039 partner limits assumed): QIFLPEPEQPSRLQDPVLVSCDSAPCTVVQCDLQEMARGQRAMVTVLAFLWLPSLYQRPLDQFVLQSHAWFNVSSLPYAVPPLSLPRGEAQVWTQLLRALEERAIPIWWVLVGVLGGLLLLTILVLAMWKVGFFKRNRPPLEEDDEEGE
T1 sequence (P05106 27-788): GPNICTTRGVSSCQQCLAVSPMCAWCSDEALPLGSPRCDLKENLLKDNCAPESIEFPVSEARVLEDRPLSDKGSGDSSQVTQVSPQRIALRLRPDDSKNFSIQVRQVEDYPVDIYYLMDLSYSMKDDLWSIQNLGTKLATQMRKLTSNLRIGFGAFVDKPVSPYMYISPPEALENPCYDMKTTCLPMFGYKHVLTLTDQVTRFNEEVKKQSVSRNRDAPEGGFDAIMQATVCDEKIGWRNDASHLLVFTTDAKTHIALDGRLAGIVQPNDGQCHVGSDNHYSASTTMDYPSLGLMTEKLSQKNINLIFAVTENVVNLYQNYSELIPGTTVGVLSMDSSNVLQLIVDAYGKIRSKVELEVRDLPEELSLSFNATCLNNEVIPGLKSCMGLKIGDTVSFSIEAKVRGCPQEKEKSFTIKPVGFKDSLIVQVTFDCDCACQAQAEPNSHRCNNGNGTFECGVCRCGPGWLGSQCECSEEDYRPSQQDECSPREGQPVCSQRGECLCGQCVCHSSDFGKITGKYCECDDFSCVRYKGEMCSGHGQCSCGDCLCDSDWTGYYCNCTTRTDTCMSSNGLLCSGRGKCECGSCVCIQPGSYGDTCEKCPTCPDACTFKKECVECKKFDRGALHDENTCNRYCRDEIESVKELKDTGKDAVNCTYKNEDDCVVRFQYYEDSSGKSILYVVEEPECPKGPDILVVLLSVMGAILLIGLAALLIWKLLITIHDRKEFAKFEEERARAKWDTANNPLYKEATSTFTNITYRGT
human platelet rich plasma (PRP) platelets, sequence (P08514 32-1039): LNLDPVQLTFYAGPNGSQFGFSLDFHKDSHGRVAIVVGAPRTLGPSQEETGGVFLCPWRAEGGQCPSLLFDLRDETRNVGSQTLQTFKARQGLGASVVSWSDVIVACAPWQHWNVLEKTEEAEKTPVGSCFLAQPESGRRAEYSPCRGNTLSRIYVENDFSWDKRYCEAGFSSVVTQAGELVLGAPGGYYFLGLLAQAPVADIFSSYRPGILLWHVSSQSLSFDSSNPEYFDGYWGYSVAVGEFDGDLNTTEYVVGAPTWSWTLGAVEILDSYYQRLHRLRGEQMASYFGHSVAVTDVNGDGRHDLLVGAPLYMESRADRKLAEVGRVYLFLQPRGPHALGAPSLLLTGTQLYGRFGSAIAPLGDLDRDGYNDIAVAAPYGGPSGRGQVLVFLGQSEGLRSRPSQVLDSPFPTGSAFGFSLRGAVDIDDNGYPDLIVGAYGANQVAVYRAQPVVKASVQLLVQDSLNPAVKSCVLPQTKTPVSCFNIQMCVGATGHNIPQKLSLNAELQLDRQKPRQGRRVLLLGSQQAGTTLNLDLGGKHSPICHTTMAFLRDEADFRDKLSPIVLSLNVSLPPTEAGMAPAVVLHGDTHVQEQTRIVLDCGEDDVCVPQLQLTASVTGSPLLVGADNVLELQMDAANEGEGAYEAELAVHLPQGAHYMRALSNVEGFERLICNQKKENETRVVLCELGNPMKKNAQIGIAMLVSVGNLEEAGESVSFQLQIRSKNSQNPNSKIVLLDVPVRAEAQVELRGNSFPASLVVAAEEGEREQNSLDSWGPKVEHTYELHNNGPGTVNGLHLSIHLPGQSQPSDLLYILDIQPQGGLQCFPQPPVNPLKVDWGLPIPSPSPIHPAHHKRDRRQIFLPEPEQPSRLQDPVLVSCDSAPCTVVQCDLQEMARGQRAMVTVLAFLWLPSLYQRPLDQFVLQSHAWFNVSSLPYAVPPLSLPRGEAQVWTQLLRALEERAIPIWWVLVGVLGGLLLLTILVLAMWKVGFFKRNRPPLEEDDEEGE
human platelet rich plasma (PRP) platelets, sequence (P05106 27-788): as the sequence (P05106 27-788) above

Ratio of IC50 of test compound to IC50 of Gly-Arg-Gly-Asp-Val [2] | Compound | IC50 [1] [µM] | Ratio of IC50 of test compound to IC50 of Gly-Arg-Gly-Asp-Val [2, 3] | further results
> 20 | N=C(N)NCCC[C@H](N)C(=O)NCC(=O)N[C@@H](CC(=O)O)C(=O)N[C@@H](CO)C(=O)O [Arg--Gly--Asp--Ser, reference compound] | – | – | –
3 | CC(C)[C@H](NC(=O)[C@H](CC(=O)O)NC(=O)CNC(=O)[C@@H](N)CCCNC(=N)N)C(=O)O [Arg--Gly--Asp--Val, reference compound] (H-RGDV-OH) | – | – | –
0.46 | C[C@@H](O)[C@@H]1NC(=O)CSC[C@@H](C(=O)O)NC(=O)[C@H](CC(=O)O)NC(=O)CNC(=O)[C@H](CCCNC(=N)N)NC1=O [Ex. 6, cyclo-S-acetyl-Thr--Arg--Gly--Asp--Cys--OH] ({CH2CO}-TRGDC-OH; thioether N-5) | – | – | –
0.46 | N=C(N)NCCC[C@@H]1NC(=O)[C@@H]2CCCN2C(=O)CSC[C@@H](C(=O)O)NC(=O)[C@H](CC(=O)O)NC(=O)CNC1=O [Ex. 12, cyclo-S-acetyl-Pro--Arg--Gly--Asp--Cys--OH] ({CH2CO}-PRGDC-OH; thioether N-5) | – | – | –
0.38 | N=C(N)NCCC[C@@H]1NC(=O)[C@H](Cc2ccc(O)cc2)NC(=O)CSC[C@@H](C(=O)O)NC(=O)[C@H](CC(=O)O)NC(=O)CNC1=O [Ex. 10, cyclo-S-acetyl-Tyr--Arg--Gly--Asp--Cys--OH] ({CH2CO}-YRGDC-OH; thioether N-5) | – | – | –
0.14 | N=C(N)NCCC[C@@H]1NC(=O)[C@@H](CC(N)=O)NC(=O)CSC[C@@H](C(=O)O)NC(=O)[C@H](CC(=O)O)NC(=O)CNC1=O [Ex. 5, cyclo-S-acetyl-(dAsn)-Arg--Gly--Asp--Cys--OH] ({CH2CO}-[dN]RGDC-OH; thioether N-5) | – | – | –
0.5 | C[C@@H]1NC(=O)CSC[C@@H](C(=O)O)NC(=O)[C@H](CC(=O)O)NC(=O)CNC(=O)[C@H](CCCNC(=N)N)NC1=O [Ex. 8, cyclo-S-acetyl-Ala--Arg--Gly--Asp--Cys--OH] ({CH2CO}-ARGDC-OH; thioether N-5) | – | – | –

Second part, the compound before the results:

Compound | Ratio of IC50 of test compound to IC50 of Gly-Arg-Gly-Asp-Val [2] | IC50 [1] [µM] | Ratio of IC50 of test compound to IC50 of Gly-Arg-Gly-Asp-Val [2, 3] | further results
C[C@H]1NC(=O)CSC[C@@H](C(=O)O)NC(=O)[C@H](CC(=O)O)NC(=O)CNC(=O)[C@H](CCCNC(=N)N)NC1=O [Ex. 9, cyclo-S-acetyl-(dAla)-Arg--Gly--Asp--Cys--OH] ({CH2CO}-[dA]RGDC-OH; thioether N-5) | – | 3 | 0.13 | –
N=C(N)NCCC[C@@H]1NC(=O)CNC(=O)C(c2ccccc2)SC[C@@H](C(=O)O)NC(=O)[C@H](CC(=O)O)NC(=O)CNC1=O (some centres unmarked) [Ex. 18, cyclo-S-Phenylacetyl-Gly--Arg--Gly--Asp--Cys--OH] | – | 3 | – | –
N=C(N)NCCC[C@@H]1NC(=O)CNC(=O)CSC[C@@H](C(=O)O)NC(=O)[C@H](CC(=O)O)NC(=O)CNC1=O [cyclo-S-acetyl-Gly-Arg-Gly-Asp-Cys-OH] ({CH2CO}-GRGDC-OH; thioether N-5) | – | 8.5 | – | IC50 [2]: 0.005 µM
C[C@H](O)[C@H]1NC(=O)CSC[C@@H](C(=O)O)NC(=O)[C@H](CC(=O)O)NC(=O)CNC(=O)[C@H](CCCN=C(N)N)NC1=O [Ex. 7, Cyclo-S-acetyl-(d-Thr)-Arg-Gly-Asp-Cys-OH] ({CH2CO}-[dT]RGDC-OH; thioether N-5) | – | 0.8 | – | –
GRGDV [Gly--Arg--Gly--Asp--Val, reference compound] [listing 1 of 2 here] | – | – | – | IC50 [2]: 0.02 to 0.04 µM
GRGDV [Gly--Arg--Gly--Asp--Val, reference compound] [listing 2 of 2 here] | – | – | 1 | –
C[C@H](O)[C@H]1NC(=O)CSC[C@@H](C(=O)O)NC(=O)[C@H](CC(=O)O)NC(=O)CNC(=O)[C@H](CCCNC(=N)N)NC1=O [Ex. 7, Cyclo-S-acetyl-(d-Thr)-Arg-Gly-Asp-Cys-OH] ({CH2CO}-[dT]RGDC-OH; thioether N-5) | – | – | 0.07 | –
N=C(N)NCCC[C@@H]1NC(=O)[C@H]2CCCN2C(=O)CSC[C@@H](C(=O)O)NC(=O)[C@H](CC(=O)O)NC(=O)CNC1=O [Ex. 13, cyclo-S-acetyl-(dPro)-Arg--Gly--Asp--Cys--OH] ({CH2CO}-[dP]RGDC-OH; thioether N-5) | – | 2 | 0.05 | –
N=C(N)NCCC[C@@H]1NC(=O)CNC(=O)CSC[C@@H](C(=O)O)NC(=O)[C@H](CC(=O)O)NC(=O)CNC1=O [Ex. 2, cyclo-S-acetyl-Gly-Arg-Gly-Asp-Cys-OH] ({CH2CO}-GRGDC-OH; thioether N-5) | – | 8 | 0.14 | –
